Results from patent US5510261A, “Method of controlling the degradation of glycoprotein oligosaccharides produced by cultured Chinese hamster ovary cells” (The Board of Trustees of the Leland Stanford Juniot …, priority 1995, dated 1996).

Tested on: neuraminidase present in CHO cell supernatant
Assay: Inhibition of CHO neuraminidase activity, 4MU-NANA artificial substrate assay
Format: biochemical, Chinese hamster
Experimental: The artificial substrate 2'-(4-methylumbelliferyl)-α-D-N-acetylneuraminic acid (4MU-NANA) was used to assay for neuraminidase activity (modified from Potier et al., Anal. Biochem., 1979, 94, 287). The standard assay for lysate neuraminidase activity contained 0.1M sodium acetate (pH 3-6) or potassium phosphate (pH 6-8) buffer (10 μl of 1 M stock), 1 mM 4MU-NANA (25 μl from a 4 mM aliquot), and the lysate of 0.25 million cells ([…]) in a total volume of 100 μl. Supernatant samples were assayed identically, with supernatant replacing the added cell lysate. The 100 μl samples in plastic 1.5 ml tubes were placed in a 37° C. water bath with a shaker for 30 minutes (sometimes 60 minutes), and the reaction was stopped with 0.9 ml of 0.2M glycine (pH 10.4). […] An HP 1090 Series II HPLC coupled to an HP 1046A flow through fluorescence detector (Hewlett-Packard) was used for automated sample injection and analysis (no column). […] The fluorescence was integrated vs. time and compared to standard 4-methylumbelliferyl dilutions. […]
Aliquots of previously frozen and disrupted cells were thawed to 37° C. and assayed for neuraminidase activity as in the standard assay except the 4MU-NANA concentration varied at 0.1, 0.2, 0.4, 1 and 2 mM (pH 4.5, 5.5, 6.5 and 7.5). […] Kinetic parameters were determined by fitting an integrated form of the Michaelis-Menton equation: […]

Row | Compound | inhibition of the neuraminidase present in CHO cell supernatant
1 | CC(=O)N[C@H]1[C@H]([C@H](O)[C@H](O)CO)OC(C(=O)O)=C[C@@H]1O [2,3-D, 2,3-dehydro-2-deoxy-N-acetylneuraminic acid] | shown to inhibit
2 | CC(=O)N[C@H]1[C@H]([C@H](O)[C@H](O)CO)OC(O)(C(=O)O)C[C@@H]1O (some centres unmarked) [NANA, N-acetylneuraminicacid] | shown to inhibit
